# From patent US20050239656A1, “Pyridine compounds or salts thereof and herbicides containing the same” (priority 2002, published 2005)
# What was measured:
# prickly sida = assay: Test Example 2: soil surface treatment, upland pot test; type: in vivo, Sida spinosa L.; settings: observed 20th to 28th day
# In short: (§1)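 A pre-emergence soil application: formulated compound at a predetermined active-ingredient dose, diluted in water to 1,500 L/ha, sprayed on upland soil a day after seeding in 1/170,000 ha pots; growth control rated visually, 0 (untreated level) to 100 (kill), at 20–28 days.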
# rice (var. Nihonbare) = assay: Test Example 3: paddy pot test, transplanted rice; type: in vivo, Oryza sativa L.; settings: applied 4th day after transplantation, visually observed 21st day after application, 0 = non-treated, 100 = complete kill
# In short: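 Visual crop-injury rating (0 = as untreated, 100 = complete kill, %) taken 21 days post-application. Treatment: formulated compound, water-diluted, pipetted into 3–4 cm flood water at a preset active-ingredient dose, 4 days after transplanting 2-leaf Nihonbare rice 3 cm deep in puddled paddy soil.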
# rice = assay: Test Example 2: soil surface treatment, upland pot test; type: in vivo, Oryza sativa L.; settings: observed 20th to 28th day
# In short: as §1
# japanese bulrush = assay: Test Example 3: paddy pot test, application under submerged conditions; type: in vivo, Scirpus juncoides; settings: submerged application at 0.5 leaf stage, visually observed 14 days after application, 0 = non-treated, 100 = complete kill
# In short: (§2)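 Paddy soil pots; seeds sown, lightly covered; flooded 0.5–1 cm in greenhouse; wapato tubers planted day 1–2; flood raised to 3–4 cm. Submerged pipette application at 0.5 leaf / primary leaf stage. Visual score day 14, 0–100%.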
# wheat = assay: Test Example 2: soil surface treatment, upland pot test; type: in vivo, Triticum spp.; settings: observed 20th to 28th day
# Text: Upland field soil was put into a 1/170,000 ha pot, and seed of various plants (barnyardgrass, crabgrass, green foxtail, redroot pigweed, prickly sida, velvetleaf, rice, wheat, corn, soybean) were sown. On the 1st day after the sowing, a wettable powder or emulsifiable concentrate having the compound of the present invention formulated in accordance with a usual formulation method, was weighed so that the active ingredient would be a predetermined amount, and diluted with water in an amount of 1,500 L/ha. The herbicide thus adjusted was applied by a small size sprayer for soil surface treatment. On the 20th to 28th days after the application of the herbicide, the growth of the respective plants was visually observed, and the herbicidal effects were evaluated by the growth controlling degrees (%) ranging from 0 (equivalent to the non-treated plot) to 100 (complete kill), whereby the results shown in Table 4, were obtained.
# corn = assay: as above; type: in vivo, Zea mays L.; settings: observed 20th to 28th day
# In short: as §1
# velvetleaf = assay: as above; type: in vivo, Abutilon theophrasti MEDIC.; settings: observed 20th to 28th day
# In short: as §1
# soybean = assay: as above; type: in vivo, Glycine max Merr.; settings: observed 20th to 28th day
# In short: as §1
# japanese ribbon wapato = assay: Test Example 3: paddy pot test, application under submerged conditions; type: in vivo, Sagittaria pygniaea; settings: active ingredient 500 g/ha; submerged application at primary leaf stage; visually observed 14 days after application; 0 = non-treated, 100 = complete kill
# In short: as §2
# redroot pigweed = assay: Test Example 2: soil surface treatment, upland pot test; type: in vivo, Amaranthus retroflexus L.; settings: observed 20th to 28th day
# In short: as §1
# barnyardgrass [1] = assay: as above; type: in vivo, Echinochloa crus-galli L.; settings: observed 20th to 28th day
# In short: as §1
# crabgrass = assay: as above; type: in vivo, Digitaria sanguinalis L.; settings: observed 20th to 28th day
# In short: as §1
# green foxtail = assay: as above; type: in vivo, Setaria viridis L.; settings: observed 20th to 28th day
# In short: as §1
# barnyardgrass [2] = assay: Test Example 3: paddy pot test, application under submerged conditions; type: in vivo, Echinochloa crus-galli L.; settings: active ingredient 250 g/ha; submerged application at 0.5 leaf stage; visually observed 14 days after application; 0 = non-treated, 100 = complete kill
# In short: as §2
smiles,measurement,setting,value
CC(C)C(c1cnccc1C(F)(F)F)N(C)C(=O)Cc1cccc(F)c1 (centres unmarked) [Compound I-20],Growth controlling degree (%) Prickly sida,prickly sida; active ingredient 500 g/ha,100%
same,Growth controlling degree (%) Rice,rice (var. Nihonbare); active ingredient 500 g/ha,40%
same,Growth controlling degree (%) Rice,rice; active ingredient 500 g/ha,0%
same,Growth controlling degree (%) Japanese bulrush,japanese bulrush; active ingredient 500 g/ha,90%
same,Growth controlling degree (%) wheat,wheat; active ingredient 500 g/ha,40%
same,Growth controlling degree (%) Corn,corn; active ingredient 500 g/ha,70%
same,Growth controlling degree (%) Velvetleaf,velvetleaf; active ingredient 500 g/ha,100%
same,Growth controlling degree (%) Soyabean,soybean; active ingredient 500 g/ha,30%
same,Growth controlling degree (%) Japanese ribbon wapato,japanese ribbon wapato,90%
same,Growth controlling degree (%) Redroot pigweed,redroot pigweed; active ingredient 500 g/ha,95%
same,Growth controlling degree (%) Barnyardgrass,barnyardgrass [1]; active ingredient 500 g/ha,100%
same,Growth controlling degree (%) Crabgrass,crabgrass; active ingredient 500 g/ha,100%
same,Growth controlling degree (%) Green foxtail,green foxtail; active ingredient 500 g/ha,100%
CC(C)C(c1cnccc1C(F)(F)F)N(C)C(=O)C(F)=Cc1ccccc1 (centres unmarked) [Compound I-207],Growth controlling degree (%) Prickly sida,prickly sida; active ingredient 250 g/ha,80%
same,Growth controlling degree (%) Rice,rice (var. Nihonbare); active ingredient 250 g/ha,10%
same,Growth controlling degree (%) Rice,rice; active ingredient 250 g/ha,40%
same,Growth controlling degree (%) Japanese bulrush,japanese bulrush; active ingredient 250 g/ha,100%
same,Growth controlling degree (%) wheat,wheat; active ingredient 250 g/ha,20%
same,Growth controlling degree (%) Corn,corn; active ingredient 250 g/ha,30%
same,Growth controlling degree (%) Velvetleaf,velvetleaf; active ingredient 250 g/ha,50%
same,Growth controlling degree (%) Soyabean,soybean; active ingredient 250 g/ha,30%
same,Growth controlling degree (%) Redroot pigweed,redroot pigweed; active ingredient 250 g/ha,60%
same,Growth controlling degree (%) Barnyardgrass,barnyardgrass [1]; active ingredient 250 g/ha,100%
same,Growth controlling degree (%) Barnyardgrass,barnyardgrass [2],98%
same,Growth controlling degree (%) Crabgrass,crabgrass; active ingredient 250 g/ha,98%
same,Growth controlling degree (%) Green foxtail,green foxtail; active ingredient 250 g/ha,100%
CC(C)C(c1cnccc1C(F)(F)F)N(C)C(=O)C(F)(F)F (centres unmarked) [Compound I-209],Growth controlling degree (%) Prickly sida,prickly sida; active ingredient 250 g/ha,70%
same,Growth controlling degree (%) Rice,rice (var. Nihonbare); active ingredient 250 g/ha,35%
same,Growth controlling degree (%) Rice,rice; active ingredient 250 g/ha,70%
same,Growth controlling degree (%) Japanese bulrush,japanese bulrush; active ingredient 250 g/ha,100%
same,Growth controlling degree (%) wheat,wheat; active ingredient 250 g/ha,70%
same,Growth controlling degree (%) Corn,corn; active ingredient 250 g/ha,50%
same,Growth controlling degree (%) Velvetleaf,velvetleaf; active ingredient 250 g/ha,60%
same,Growth controlling degree (%) Soyabean,soybean; active ingredient 250 g/ha,50%
same,Growth controlling degree (%) Redroot pigweed,redroot pigweed; active ingredient 250 g/ha,60%
same,Growth controlling degree (%) Barnyardgrass,barnyardgrass [1]; active ingredient 250 g/ha,100%
same,Growth controlling degree (%) Barnyardgrass,barnyardgrass [2],98%
same,Growth controlling degree (%) Crabgrass,crabgrass; active ingredient 250 g/ha,98%
same,Growth controlling degree (%) Green foxtail,green foxtail; active ingredient 250 g/ha,100%
CC(C)C(c1cnccc1Cl)N(C)C(=O)Cc1ccccc1 (centres unmarked) [I-22],Growth controlling degree (%) Prickly sida,prickly sida; active ingredient 500 g/ha,70%
same,Growth controlling degree (%) Rice,rice (var. Nihonbare); active ingredient 500 g/ha,0%
same,Growth controlling degree (%) Rice,rice; active ingredient 500 g/ha,10%
same,Growth controlling degree (%) Japanese bulrush,japanese bulrush; active ingredient 500 g/ha,95%
same,Growth controlling degree (%) wheat,wheat; active ingredient 500 g/ha,30%
same,Growth controlling degree (%) Corn,corn; active ingredient 500 g/ha,20%
same,Growth controlling degree (%) Velvetleaf,velvetleaf; active ingredient 500 g/ha,70%
same,Growth controlling degree (%) Soyabean,soybean; active ingredient 500 g/ha,10%
same,Growth controlling degree (%) Japanese ribbon wapato,japanese ribbon wapato,95%
same,Growth controlling degree (%) Redroot pigweed,redroot pigweed; active ingredient 500 g/ha,90%
same,Growth controlling degree (%) Barnyardgrass,barnyardgrass [1]; active ingredient 500 g/ha,90%
same,Growth controlling degree (%) Crabgrass,crabgrass; active ingredient 500 g/ha,95%
same,Growth controlling degree (%) Green foxtail,green foxtail; active ingredient 500 g/ha,90%
CC(C)C(c1cnccc1C(F)(F)F)N(C)C(=O)CCBr (centres unmarked) [I-201],Growth controlling degree (%) Prickly sida,prickly sida; active ingredient 250 g/ha,60%
same,Growth controlling degree (%) Rice,rice (var. Nihonbare); active ingredient 250 g/ha,10%
same,Growth controlling degree (%) Rice,rice; active ingredient 250 g/ha,70%
same,Growth controlling degree (%) Japanese bulrush,japanese bulrush; active ingredient 250 g/ha,98%
same,Growth controlling degree (%) wheat,wheat; active ingredient 250 g/ha,60%
same,Growth controlling degree (%) Corn,corn; active ingredient 250 g/ha,40%
same,Growth controlling degree (%) Velvetleaf,velvetleaf; active ingredient 250 g/ha,40%
same,Growth controlling degree (%) Soyabean,soybean; active ingredient 250 g/ha,40%
same,Growth controlling degree (%) Redroot pigweed,redroot pigweed; active ingredient 250 g/ha,70%
same,Growth controlling degree (%) Barnyardgrass,barnyardgrass [1]; active ingredient 250 g/ha,100%
same,Growth controlling degree (%) Barnyardgrass,barnyardgrass [2],98%
same,Growth controlling degree (%) Crabgrass,crabgrass; active ingredient 250 g/ha,100%
same,Growth controlling degree (%) Green foxtail,green foxtail; active ingredient 250 g/ha,100%
CCCOC(=O)N(C)C(c1cnccc1C(F)(F)F)C(C)C (centres unmarked) [I-203],Growth controlling degree (%) Prickly sida,prickly sida; active ingredient 250 g/ha,60%
same,Growth controlling degree (%) Rice,rice (var. Nihonbare); active ingredient 250 g/ha,10%
same,Growth controlling degree (%) Rice,rice; active ingredient 250 g/ha,60%
same,Growth controlling degree (%) Japanese bulrush,japanese bulrush; active ingredient 250 g/ha,95%
same,Growth controlling degree (%) wheat,wheat; active ingredient 250 g/ha,30%
same,Growth controlling degree (%) Corn,corn; active ingredient 250 g/ha,40%
same,Growth controlling degree (%) Velvetleaf,velvetleaf; active ingredient 250 g/ha,30%
same,Growth controlling degree (%) Soyabean,soybean; active ingredient 250 g/ha,30%
same,Growth controlling degree (%) Redroot pigweed,redroot pigweed; active ingredient 250 g/ha,80%
same,Growth controlling degree (%) Barnyardgrass,barnyardgrass [1]; active ingredient 250 g/ha,100%
same,Growth controlling degree (%) Barnyardgrass,barnyardgrass [2],100%
same,Growth controlling degree (%) Crabgrass,crabgrass; active ingredient 250 g/ha,100%
same,Growth controlling degree (%) Green foxtail,green foxtail; active ingredient 250 g/ha,98%
CC(=Cc1ccccc1)C(=O)N(C)C(c1cnccc1C(F)(F)F)C(C)C (centres unmarked) [I-206],Growth controlling degree (%) Prickly sida,prickly sida; active ingredient 250 g/ha,50%
same,Growth controlling degree (%) Rice,rice (var. Nihonbare); active ingredient 250 g/ha,10%
same,Growth controlling degree (%) Rice,rice; active ingredient 250 g/ha,40%
same,Growth controlling degree (%) Japanese bulrush,japanese bulrush; active ingredient 250 g/ha,98%
same,Growth controlling degree (%) wheat,wheat; active ingredient 250 g/ha,30%
same,Growth controlling degree (%) Corn,corn; active ingredient 250 g/ha,30%
same,Growth controlling degree (%) Velvetleaf,velvetleaf; active ingredient 250 g/ha,40%
same,Growth controlling degree (%) Soyabean,soybean; active ingredient 250 g/ha,20%
same,Growth controlling degree (%) Redroot pigweed,redroot pigweed; active ingredient 250 g/ha,70%
same,Growth controlling degree (%) Barnyardgrass,barnyardgrass [1]; active ingredient 250 g/ha,100%
same,Growth controlling degree (%) Barnyardgrass,barnyardgrass [2],100%
same,Growth controlling degree (%) Crabgrass,crabgrass; active ingredient 250 g/ha,100%
same,Growth controlling degree (%) Green foxtail,green foxtail; active ingredient 250 g/ha,100%
CC(=O)N(C)C(c1cnccc1C(F)(F)F)C(C)C (centres unmarked) [I-208],Growth controlling degree (%) Prickly sida,prickly sida; active ingredient 250 g/ha,80%
same,Growth controlling degree (%) Rice,rice (var. Nihonbare); active ingredient 250 g/ha,70%
same,Growth controlling degree (%) Rice,rice; active ingredient 250 g/ha,100%
same,Growth controlling degree (%) Japanese bulrush,japanese bulrush; active ingredient 250 g/ha,98%
same,Growth controlling degree (%) wheat,wheat; active ingredient 250 g/ha,80%
same,Growth controlling degree (%) Corn,corn; active ingredient 250 g/ha,70%
same,Growth controlling degree (%) Velvetleaf,velvetleaf; active ingredient 250 g/ha,50%
same,Growth controlling degree (%) Soyabean,soybean; active ingredient 250 g/ha,60%
same,Growth controlling degree (%) Redroot pigweed,redroot pigweed; active ingredient 250 g/ha,90%
same,Growth controlling degree (%) Barnyardgrass,barnyardgrass [1]; active ingredient 250 g/ha,100%
same,Growth controlling degree (%) Barnyardgrass,barnyardgrass [2],98%
same,Growth controlling degree (%) Crabgrass,crabgrass; active ingredient 250 g/ha,100%
same,Growth controlling degree (%) Green foxtail,green foxtail; active ingredient 250 g/ha,100%
